This is an account of results in article PMC7672456 (Nucleic Acids Research, 2020).

For one data set, the system named is P. falciparum strain 3D7. Put plainly: In vitro Plasmodium growth assay. In kind it is cell-based, Plasmodium falciparum.
Data set [1] has as its target T1, HsLysRS (Homo sapiens, UniProt Q15046). The data set is described as follows: ATP hydrolysis assay. Format: biochemical.
For data set [2], the target named is T2, PfLysRS (Plasmodium falciparum, UniProt Q8IDJ8). Put plainly: Thermal shift assay. In kind it is binding. The note with it: for increase of Tm of PfLysRS: 200 μM compound.
T2 sequence (Q8IDJ8 77-583 limits assumed): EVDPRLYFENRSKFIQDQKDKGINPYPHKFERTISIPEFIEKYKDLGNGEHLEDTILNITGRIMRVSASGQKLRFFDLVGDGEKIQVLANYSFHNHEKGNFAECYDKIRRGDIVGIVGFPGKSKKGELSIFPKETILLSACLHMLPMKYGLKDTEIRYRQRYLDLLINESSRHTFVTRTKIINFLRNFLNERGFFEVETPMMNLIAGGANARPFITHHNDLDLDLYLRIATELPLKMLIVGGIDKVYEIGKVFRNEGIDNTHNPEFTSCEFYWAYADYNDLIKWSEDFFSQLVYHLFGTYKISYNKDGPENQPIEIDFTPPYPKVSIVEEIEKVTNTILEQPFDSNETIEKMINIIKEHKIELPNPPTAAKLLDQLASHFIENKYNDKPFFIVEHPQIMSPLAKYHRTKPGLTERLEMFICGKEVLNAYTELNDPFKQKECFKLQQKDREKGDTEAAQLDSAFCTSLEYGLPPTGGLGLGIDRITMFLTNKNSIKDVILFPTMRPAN
Data set [3] deals with T2, PfLysRS. Put plainly: Surface plasmon resonance. Format: binding.
Data set [4] has as its system mammalian protein translation system. Put plainly: Mammalian protein translation assay in rabbit reticulocyte lysate. In kind it is biochemical. The note with it: firefly luciferase mRNA.
The target of data set [5] is T1, HsLysRS. Put plainly: Thermal shift assay. As to conditions: in the presence or absence of L-lysine. In kind it is binding.
For data set [6] the following is noted: phase I, patients, oral; cited from earlier work.
For data set [7], the target named is T2, PfLysRS. The note with it: cited from earlier work.

T1 sequence (Q15046 70-581): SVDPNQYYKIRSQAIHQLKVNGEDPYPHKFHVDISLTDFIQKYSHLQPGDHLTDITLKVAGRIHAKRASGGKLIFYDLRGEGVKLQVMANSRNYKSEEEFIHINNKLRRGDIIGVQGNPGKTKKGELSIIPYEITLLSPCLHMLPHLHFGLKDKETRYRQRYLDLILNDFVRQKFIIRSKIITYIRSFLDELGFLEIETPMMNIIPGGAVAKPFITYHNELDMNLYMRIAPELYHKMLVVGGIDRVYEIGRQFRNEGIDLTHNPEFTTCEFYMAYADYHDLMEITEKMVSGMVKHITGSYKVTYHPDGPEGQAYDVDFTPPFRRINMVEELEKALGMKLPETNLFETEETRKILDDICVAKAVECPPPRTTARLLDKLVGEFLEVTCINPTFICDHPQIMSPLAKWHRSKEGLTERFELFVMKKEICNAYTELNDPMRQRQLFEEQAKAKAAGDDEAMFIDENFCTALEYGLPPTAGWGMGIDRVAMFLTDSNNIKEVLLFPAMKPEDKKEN

Regarding `COc1cc(N2CCC(N3CCN(C)CC3)CC2)ccc1Nc1ncnc(Nc2ccccc2S(=O)(=O)C(C)C)n1` [ASP3026, N-{2-Methoxy-4-[4-(4-methylpiperazin-1-yl)piperidin-1-yl]phenyl}-N'-[2-(propane-2-sulfonyl)phenyl]-1,3,5-triazine-2,4-diamine], the IC50 with P. falciparum strain 3D7 (Plasmodium falciparum, 3D7, 72 h) is 5.61 ± 0.26 µM; against HsLysRS [1], > 250 µM; in data set [4] it was > 1000 µM. In the data set with P. falciparum strain 3D7 (synchronized ring stage, 25 μM, monitored over 72 h, Giemsa smears), the “parasite growth and morphology” value is listed as “stopped growing completely until they eventually died”. The “fold less potent on HsLysRS than on PfLysRS (IC50 ratio)” value on HsLysRS [1] (ATP hydrolysis IC50 HsLysRS versus PfLysRS) is “over 380 fold”. In addition, the Kd on PfLysRS [2] was ~0.238 µM; on PfLysRS [3] it was 0.239 µM. The “increase of Tm of PfLysRS” value on PfLysRS [2] (in the presence of L-lysine (500 μM)) turned out to be 8.0 °C; on PfLysRS [2] (without L-lysine, 10 μM PfLysRS), 10.0 °C. At PfLysRS [3], the koff amounted to 0.0063 s⁻¹. The compound further registered a kon on PfLysRS [3] of 26400 M⁻¹ s⁻¹. In addition, the “thermal stability of HsLysRS” value at HsLysRS [5] is listed as “could not increase the thermal stability”. The half-life range in data set [6] was 22 to 85 h. Also, the median half-life in data set [6] is 35 h.

Regarding `C[C@H]1CCC[C@H](C[C@H]2Cc3cc(O)cc(O)c3C(=O)O2)O1` [cladosporin], at PfLysRS [7], the IC50 was ~0.004 µM and the “fold lower IC50 on PfLysRS compared to other eukaryotic LysRSs including human LysRS” value was 1000 fold.

For orientation: IC50 means the concentration that gives 50% inhibition. In general, Kd refers to the equilibrium constant for the complex coming apart. Usually koff stands for the first-order rate constant of dissociation. Higher therefore signals fast dissociation. A word on the kon: it is the second-order rate constant of association. Low readings indicate slow association, high ones fast association.
